# According to ChEMBL document CHEMBL1140282, “1,4-Benzodiazepine-2,5-diones as small molecule antagonists of the HDM2-p53 interaction: discovery and SAR” (Bioorg Med Chem Lett, 2005):
# Columns and labels:
# [1] = target: Tumour suppressor p53/oncoprotein Mdm2 (Homo sapiens, UniProt Q00987); assay: Inhibition of p53-binding to HDM2 (human MDM2) by fluorescence polarization peptide displacement assay; type: protein assay
# [2] = Dissociation constant was determined; (by measuring difference in protein melting temperature); type: physicochemical
# Tumour suppressor p53/oncoprotein Mdm2, sequence (P04637 whole entry): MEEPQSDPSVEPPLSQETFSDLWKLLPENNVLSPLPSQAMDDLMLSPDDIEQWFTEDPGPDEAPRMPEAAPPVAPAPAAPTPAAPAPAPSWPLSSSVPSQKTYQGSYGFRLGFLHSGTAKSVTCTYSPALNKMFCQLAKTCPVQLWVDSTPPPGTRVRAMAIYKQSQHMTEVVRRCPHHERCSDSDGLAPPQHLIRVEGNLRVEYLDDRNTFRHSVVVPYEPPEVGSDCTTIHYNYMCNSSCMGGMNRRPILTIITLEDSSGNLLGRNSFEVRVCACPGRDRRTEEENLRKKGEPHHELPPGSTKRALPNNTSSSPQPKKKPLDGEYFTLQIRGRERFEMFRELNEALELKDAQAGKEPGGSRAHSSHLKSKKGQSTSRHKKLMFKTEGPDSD
# Tumour suppressor p53/oncoprotein Mdm2, sequence (Q00987 whole entry): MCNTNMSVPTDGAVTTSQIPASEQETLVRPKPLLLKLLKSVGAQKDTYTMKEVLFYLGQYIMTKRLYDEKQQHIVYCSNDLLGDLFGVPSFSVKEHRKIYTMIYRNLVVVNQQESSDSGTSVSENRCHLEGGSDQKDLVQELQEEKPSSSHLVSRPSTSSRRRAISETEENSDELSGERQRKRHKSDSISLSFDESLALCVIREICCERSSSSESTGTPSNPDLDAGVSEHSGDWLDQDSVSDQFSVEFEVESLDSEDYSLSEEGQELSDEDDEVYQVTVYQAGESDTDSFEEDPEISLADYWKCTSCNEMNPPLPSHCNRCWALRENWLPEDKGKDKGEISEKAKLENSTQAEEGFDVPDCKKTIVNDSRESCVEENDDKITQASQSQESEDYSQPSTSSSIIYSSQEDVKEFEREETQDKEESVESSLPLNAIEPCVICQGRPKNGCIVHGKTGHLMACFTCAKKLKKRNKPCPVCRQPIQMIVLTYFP
structure (smiles),measurement,setting,value
O=C(O)[C@H](c1ccc(Cl)cc1)N1C(=O)c2cc(CO)ccc2NC(=O)[C@@H]1c1ccc(Cl)cc1,IC50,[1],3300 nM
CC(C)(C)c1ccc([C@@H](C(=O)O)N2C(=O)c3cc(I)ccc3NC(=O)[C@@H]2c2ccc(Cl)cc2)cc1,IC50,[1],2270 nM
O=C(O)[C@H](c1ccc(Cl)nc1)N1C(=O)c2cc(I)ccc2NC(=O)[C@@H]1c1cc2ccccc2[nH]1,IC50,[1],7900 nM
O=C(O)[C@H](c1ccc(Cl)cc1)N1C(=O)c2cc(Cl)ccc2NC(=O)[C@@H]1c1ccc(Cl)cc1,Kd,[2],1530 nM
same,IC50,[1],830 nM
O=C1Nc2ccc(I)cc2C(=O)N([C@H](C(=O)O)c2ccccc2Cl)[C@H]1c1ccc(Cl)cc1,IC50,[1],20000 nM
CC(C)c1ccc([C@@H](C(=O)O)N2C(=O)c3cc(I)ccc3NC(=O)[C@@H]2c2ccc(Cl)cc2)cc1,Kd,[2],83 nM
same,IC50,[1],1550 nM
O=C(O)[C@H](c1ccc(Cl)cc1)N1C(=O)c2ccccc2NC(=O)[C@@H]1c1ccc(Cl)cc1,Kd,[2],7690 nM
same,IC50,[1],14800 nM
O=C(O)[C@H](c1ccccc1)N1C(=O)c2cc(I)ccc2NC(=O)[C@@H]1c1ccc(Cl)cc1,IC50,[1],2500 nM
O=C(O)[C@H](c1ccc(Cl)nc1)N1C(=O)c2cc(I)ccc2NC(=O)[C@@H]1c1ccc(Cl)cc1,IC50,[1],1470 nM
CC(=O)Nc1ccc2c(c1)C(=O)N([C@H](C(=O)O)c1ccc(Cl)cc1)[C@@H](c1ccc(Cl)cc1)C(=O)N2,IC50,[1],> 125000 nM
O=C(O)[C@H](c1ccccc1)N1C(=O)c2cc(I)ccc2NC(=O)[C@@H]1c1ccccc1C(F)(F)F,IC50,[1],> 125000 nM
N#Cc1ccc2c(c1)C(=O)N([C@H](C(=O)O)c1ccc(Cl)cc1)[C@@H](c1ccc(Cl)cc1)C(=O)N2,Kd,[2],10000 nM
same,IC50,[1],14800 nM
C#Cc1ccc2c(c1)C(=O)N([C@H](C(=O)O)c1ccc(Cl)cc1)[C@@H](c1ccc(Cl)cc1)C(=O)N2,Kd,[2],250 nM
same,IC50,[1],870 nM
CC(C)CC[C@@H](C(=O)O)N1C(=O)c2cc(I)ccc2NC(=O)[C@@H]1c1ccc(Cl)cc1,IC50,[1],12000 nM
O=C(O)[C@H](c1ccc(Cl)cc1)N1C(=O)c2cc(I)c(Cl)cc2NC(=O)[C@@H]1c1ccc(Cl)cc1,Kd,[2],167 nM
same,IC50,[1],700 nM
O=C(O)[C@H](c1ccc(Cl)nc1)N1C(=O)c2cc(I)ccc2NC(=O)[C@@H]1c1c[nH]c2ccccc12,IC50,[1],55000 nM
Cc1ccc([C@@H](C(=O)O)N2C(=O)c3cc(I)ccc3NC(=O)[C@@H]2c2ccc(Cl)cc2)cc1,Kd,[2],167 nM
same,IC50,[1],1590 nM
O=C(O)[C@H](c1cccc(Cl)c1)N1C(=O)c2cc(I)ccc2NC(=O)[C@@H]1c1ccc(Cl)cc1,IC50,[1],2700 nM
O=C(O)[C@H](c1ccc(Cl)cc1)N1C(=O)c2cc(I)ccc2NC(=O)[C@@H]1c1ccc(Cl)nc1,IC50,[1],7400 nM
CCCC[C@@H](C(=O)O)N1C(=O)c2cc(I)ccc2NC(=O)[C@@H]1c1ccc(Cl)cc1,IC50,[1],14000 nM
O=C(O)[C@H](c1ccc(Br)cc1)N1C(=O)c2cc(I)ccc2NC(=O)[C@@H]1c1ccc(Cl)cc1,Kd,[2],83 nM
same,IC50,[1],620 nM
O=C(O)[C@H](c1ccc(O)cc1)N1C(=O)c2cc(I)ccc2NC(=O)[C@@H]1c1ccc(Cl)cc1,Kd,[2],14300 nM
same,IC50,[1],16500 nM
Cc1ccc([C@H]2C(=O)Nc3ccc(I)cc3C(=O)N2[C@H](C(=O)O)c2ccccc2)cc1,IC50,[1],13300 nM
O=C(O)[C@H](c1ccccc1)N1C(=O)c2cc(I)ccc2NC(=O)[C@@H]1c1cccc(C(F)(F)F)c1,IC50,[1],45000 nM
O=C(O)[C@H](c1ccc(Cl)cc1)N1Cc2cc(I)ccc2NC[C@@H]1c1ccc(Cl)cc1,IC50,[1],> 125000 nM
CCc1ccc2c(c1)C(=O)N([C@H](C(=O)O)c1ccc(Cl)cc1)[C@@H](c1ccc(Cl)cc1)C(=O)N2,IC50,[1],1500 nM
O=C1Nc2ccc(I)cc2C(=O)N([C@@H](Cc2ccccc2)C(=O)O)[C@H]1c1ccc(Cl)cc1,IC50,[1],12000 nM
O=C1Nc2ccc(I)cc2C(=O)N([C@H](C(=O)O)C2CCCCC2)[C@H]1c1ccc(Cl)cc1,IC50,[1],64000 nM
O=C(O)[C@H](c1ccc(Cl)cc1)N1C(=O)c2cc(Br)ccc2NC(=O)[C@@H]1c1ccc(Cl)cc1,Kd,[2],970 nM
same,IC50,[1],830 nM
O=C(O)[C@H](c1ccc(Cl)cc1)N1C(=O)c2cc(I)ccc2NC[C@@H]1c1ccc(Cl)cc1,IC50,[1],490 nM
CC(C)c1ccc([C@H]2C(=O)Nc3ccc(I)cc3C(=O)N2[C@H](C(=O)O)c2ccccc2)cc1,IC50,[1],18000 nM
O=C(O)[C@H](c1ccc(Cl)cc1)N1C(=O)c2cc(I)ccc2NC(=O)[C@@H]1c1ccc(C(F)(F)F)cc1,IC50,[1],620 nM
O=C(O)[C@H](c1ccc(Cl)cc1)N1C(=O)c2ccc(Cl)cc2NC(=O)[C@@H]1c1ccc(Cl)cc1,Kd,[2],1670 nM
same,IC50,[1],6300 nM
CC(C)c1ccc2c(c1)C(=O)N([C@H](C(=O)O)c1ccc(Cl)cc1)[C@@H](c1ccc(Cl)cc1)C(=O)N2,IC50,[1],1020 nM
CC(C)(C)c1ccc2c(c1)C(=O)N([C@H](C(=O)O)c1ccc(Cl)cc1)[C@@H](c1ccc(Cl)cc1)C(=O)N2,IC50,[1],2270 nM
O=C(O)[C@H](c1ccccc1)N1C(=O)c2cc(I)ccc2NC(=O)[C@@H]1c1ccc(OC(F)(F)F)cc1,IC50,[1],1320 nM
O=C(O)[C@H](c1ccc(C(F)(F)F)cc1)N1C(=O)c2cc(I)ccc2NC(=O)[C@@H]1c1ccc(Cl)cc1,IC50,[1],670 nM
O=C(O)[C@H](c1ccc(Cl)cc1)N1C(=O)c2cc(CCO)ccc2NC(=O)[C@@H]1c1ccc(Cl)cc1,IC50,[1],2400 nM
O=C(O)[C@H](c1ccc(Cl)cc1)N1C(=O)c2cc(I)ccc2NC(=O)[C@@H]1c1ccc(OC(F)(F)F)cc1,Kd,[2],760 nM
same,IC50,[1],83 nM
O=C(O)[C@H](c1ccccc1)N1C(=O)c2cc(I)ccc2NC(=O)[C@@H]1c1ccccc1,IC50,[1],38000 nM
CCc1ccc([C@H]2C(=O)Nc3ccc(I)cc3C(=O)N2[C@H](C(=O)O)c2ccccc2)cc1,IC50,[1],7500 nM
